Results as given in ChEMBL document CHEMBL6087419, “Structural insights into tryptamine psychedelics: The role of hydroxyl indole ring site in 5-HT2A receptor activation and psychedelic-like activity” (Eur J Med Chem, 2025).
Activity calls are given as the source filed them. No cut-off for these calls is given here.

Columns and labels:
[1] = system: Mus musculus; assay: Psychedelic like activity in male BALB/c mouse assessed as induction of head-twitch responses at 1 mg/kg, ip measured after 30 mins by video recording analysis; assay type: functional, organism-based
[2] = system: Mus musculus; assay: Psychedelic like activity in male BALB/c mouse assessed as induction of head-twitch responses administered intraperitoneally and measured after 30 mins by video recording analysis; assay type: functional; conditions: 0.5 h, route ip
[3] = system: Mus musculus; assay: Psychedelic like activity in male BALB/c mouse assessed as induction of head-twitch responses at 3 to 10 mg/kg, ip measured after 30 mins by video recording analysis; assay type: functional, organism-based; conditions: dose 3-10 mg/kg

Compound | Activity [1] | ED50 [2] [mg/kg] | Activity [3]
CN(C)CCc1c[nH]c2ccc(O)cc12 | Active | – | –
CN(C)CCc1c[nH]c2c(O)cccc12 | inactive | – | –
CN(C)CCc1c[nH]c2cccc(O)c12 [PSILOCIN] | Active | 0.86 | inactive
CN(C)CCc1c[nH]c2cc(O)ccc12 | inactive | – | –
